# In patent publication US6552014B2, “Methods of inhibiting platelet activation with selective serotonin reuptake inhibitors” (HeartDrug Research, L.L.C., priority 1999, dated 2003):
# Tests used:
# human platelets = assay: Platelet inhibition / platelet activation state, overall statement; type: cell-based; details: platelet rich plasma and whole blood
# Procedure: Trisodium citrate (3.8%) and whole blood is immediately mixed in a 1:9 ratio, and then centrifuged at 1200 g for 2.5 minutes, to obtain platelet-rich plasma (PRP), which is kept at room temperature for use within 1 hour for platelet aggregation studies. Platelet count is determined in each PRP sample with a Coulter Counter ZM (Coulter Co., Hialeah, Fla.). Platelet numbers are adjusted to 3.50×10^8/ml for aggregation with homologous platelet-poor plasma. PRP and whole blood aggregation tests are performed simultaneously. Whole blood is diluted 1.1 with the 0.5 ml PBS, and then swirled gently to mix . […] Platelet aggregability are expressed as the percentage of light transmittance change from baseline using platelet-poor plasma as a reference at the end of recording time for plasma samples, or as a change in electrical impedance for whole blood samples. Aggregation curves are recorded for 4 minutes and analyzed according to internationally established standards using Aggrolinkg® software.
# Venous blood (8 ml) was collected in a plastic tube containing 2 ml of acid-citrate-dextrose (ACD) (7.3 g citric acid, 22.0 g sodium citrate×2H2O and 24.5 glucose in 1000 ml distilled water) and mixed well. […] Samples were stored in the refrigerator at +4 °C, and analyzed on a Becton Dickinson FACScan flow cytometer with laser output of 15 mw, excitation at 488 nm, and emission detection at 530±30 nm. […]
# P-selectin = assay: Flow cytometry of platelet antigen expression, platelet rich plasma; type: cell-based, human; details: PRP
# Source text: For ex vivo assessment of the SSRIs effect on a PAM, a level of a PAM can be assessed by flow cytometry by first obtaining a sample that comprises platelets and then contacting the sample with a platelet activation agonist, such as phorbol myristate acetate (PMA), ADP (adenosine diphosphate), thrombin, collagen, and/or TRAP (thrombin receptor activating peptide), under conditions suitable for activation of platelets in the sample. The sample is in contact with the agonist preferably for a period of time effective to maximally activate the platelets. […] Then the formation of the complex in the sample is determined (detected or measured). […] The blood-ACD mixture was centrifuged at 1000 r.p.m. for 10 minutes at room temperature. […] The PRP was then centrifuged at 3000 r.p.m. for 10 minutes. […] All cells were then divided into ten plastic capped tubes. Nine portions of washed platelets were incubated with 5 μfluorescein isothiocyanate (FITC)-conjugated antibodies in the dark at +4 °C for 30 minutes, and one part remained unstained and served as a negative control. […] The instrument was calibrated daily with fluorescence beads (CaliBRITE; Becton Dickinson) and measured FITC-conjugated fluorescence intensity. All parameters were obtained using four decade logarithmic amplification. The data was collected and stored in list mode, and then analyzed using CELLQuest® (version 1.2.2) software. Procedures are described in detail in (Gurbel, P. […] Serebruany, V. […] The levels of various PAMs were assess from samples of human volunteers.
# [1] = healthy volunteers, desmethylsertraline 31.1 ng/ml
# [2] = healthy volunteers, desmethylsertraline 64.2 ng/ml
# [3] = healthy volunteers, desmethylsertraline 143 ng/ml
# [4] = post-angioplasty patient on aspirin, desmethylsertraline 31.1 ng/ml
# [5] = post-angioplasty patient on aspirin, desmethylsertraline 64.2 ng/ml
# [6] = post-angioplasty patient on aspirin, desmethylsertraline 143 ng/ml
smiles,measurement,setting,value
"N[C@H]1CC[C@@H](c2ccc(Cl)c(Cl)c2)c2ccccc21 [Desmethyl sertraline, N-desmethylsertraline]","platelet inhibition / platelet activation state, in words",human platelets,potent dose-dependent effects inhibiting human platelets
same,"platelet inhibition / platelet activation state, in words",human platelets; listed as NDMS,significantly reduces the platelet activation state
same,P-selectin (mean) log fluorescence intensity,P-selectin; [1],11.8
same,P-selectin (peak) log fluorescence intensity,P-selectin; [1],459
same,P-selectin (mean) log fluorescence intensity,P-selectin; [2],10.5
same,P-selectin (peak) log fluorescence intensity,P-selectin; [2],494
same,P-selectin (mean) log fluorescence intensity,P-selectin; [3],13.5
same,P-selectin (peak) log fluorescence intensity,P-selectin; [3],398
same,P-selectin (mean) log fluorescence intensity,P-selectin; [4],15
same,P-selectin (peak) log fluorescence intensity,P-selectin; [4],322
same,P-selectin (mean) log fluorescence intensity,P-selectin; [5],11
same,P-selectin (peak) log fluorescence intensity,P-selectin; [5],537
same,P-selectin (mean) log fluorescence intensity,P-selectin; [6],13.4
same,P-selectin (peak) log fluorescence intensity,P-selectin; [6],378
